“And” between values parts separate entries of the source, which are not always exact repeats. Equal entries are not always repeated.
Tests used:
[1] = Cell-free glucan staining (binding to purified yeast glucan); conditions: 0.125% (wt/vol) poacic acid, fluorescence
Method: (§1) β-1,3-Glucan was stained with aniline blue (016-21302; Wako Chemicals) as described previously (Watanabe et al. 2001) with slight modification. Briefly, log-phase yeast cells (his3Δ) were cultured in YPD with poacic acid (125 μg/mL) at 25° C. Then, cells were collected at 0, 2, 4, and 6 h after treatment and stained with aniline blue without fixation as described previously (Okada et al. 2015). Cells mounted on a glass slide were exposed to UV for 30 s to bleach out poacic acid fluorescence before acquiring images. Staining of chitin or mannoproteins with calcofluor white (F3543; Sigma-Aldrich) or Alexa594-ConA (C11253; Life Technologies), respectively, was performed as described previously (Okada et al. 2015). For cell-free glucan staining, yeast glucan (G0331; Tokyo Chemical Industry) was suspended to 0.125% (wt/vol) poacic acid and observed under a fluorescent microscope using a regular DAPI filter set (Carl Zeiss).

S. sclerotiorum = experiment: Inhibition of S. sclerotiorum in planta on detached soybean leaves; type: in vivo, Sclerotinia sclerotiorum on soybean (Williams 82); conditions: single aerosol treatment 500 μg/mL before inoculation, up to 120 h postinoculation
Method: To test inhibition in liquid culture, a dose curve of 0, 125, 250, and 500 μg/mL poacic acid in 100 mL potato dextrose broth (n=3) was used. Cultures of S. sclerotiorum strain 1980 were inoculated with 100 μL homogenized mycelia and grown at 25° C. for 48 h. The mycelia in the liquid media were dried and weighed. The growth inhibition of poacic acid on solid agar cultures (potato dextrose agar) was assessed by generating replicate plates (n=3) containing 0, 125, 250, and 500 μg/mL poacic acid. Plates were inoculated with an actively growing plug of S. sclerotiorum and grown at 25° C. The mycelial radial growth after 48 h was measured Inhibition of S. sclerotiorum in planta was tested by inoculating detached soybean leaves of the commercial variety Williams 82 with an agar plug of actively growing S. sclerotiorum mycelia. Leaves were treated one time before inoculation with either an aerosol spray of water with DMSO (control) or a 500 μg/mL solution of poacic acid. Leaves were incubated in a moist environment, and lesion development was monitored up to 120 h postinoculation. […] The growth inhibition of poacic acid was assessed at 0, 500, 1,000, and 1,500 μg/mL in replicate plates (n=3). […] Colony diameter was monitored for each treatment in a time-course experiment. […]

Saccharomyces cerevisiae = experiment: Growth inhibition of S. cerevisiae control strain by diferulates; type: cell-based; conditions: for bioactivity against S. cerevisiae: 1 mg/mL
Method: The diferulate compounds tested were synthesized as described by Lu et al. (2012) and resuspended in DMSO. Caspofungin, nikkomycin Z, and MMS were purchased from Sigma-Aldrich. Echinocandin B was a gift from O. Kondo (Chugai Pharmaceuticals, Tokyo, Japan). Micafungin was provided by Astellas Pharma. Diferulates were initially screened at a concentration of 1 mg/mL to determine bioactivity. Cells of Saccharomyces cerevisiae (MATα pdr1Δ::natMX pdr3Δ::KLURA3 snq2Δ::KI.LEU2 can1Δ::STE2pr-Sp_his5 lyp1Δ his3Δ1 leu2Δ0 ura3Δ0 met15Δ0), referred to as the control strain, were grown in 200-μL cultures at 30° C. in YPD with a drug or DMSO control. Plates were read on a TECAN M1000 over a 48-h growth period. The specific growth rate was calculated using GCAT analysis software (https://gcat3-pub.glbrc.org/) (Sato et al. 2014). When presented, IC50 values for growth rate inhibition were calculated from triplicate eight-point dose curves and SigmaPlot 12.0. When presented, error bars are means±SEs of at least three replicates.

yeast cells (his3Δ) = experiment: Mannoprotein and glucan staining (aniline blue, Con A); type: cell-based, Saccharomyces cerevisiae; conditions: 125 μg/mL, 6 h
Method: as §1

yeast cells = experiment: Cell leakage assay (FungaLight, flow cytometry); type: cell-based, Saccharomyces cerevisiae; conditions: 4 h
Method: A FungaLight Cell Viability Assay (L34952; Invitrogen) using a Guava Flow Cytometer (Millipore) was used to determine if poacic acid caused membrane damage. The population of stained cells (damaged integrity) vs. nonstained cells can be determined by flow cytometry. Caspofungin (50 ng/mL) was included as a positive control. MMS and DMSO were included as a noncell wall-targeting control and a solvent control, respectively. To test the effects of the compounds on both active and arrested cells, log-phase cultures were washed with 1×PBS and resuspended to an OD0.5 in either YPD medium or YP (no carbon source) in the presence of the drugs (n=3) for 4 h at 30° C. The cells were then stained and immediately read by flow cytometry. One-way ANOVA and Tukey's test were used to calculate the difference between drug treatments among cells with arrested growth.

Compound: COc1cc(/C=C/c2cc(/C=C/C(=O)O)cc(OC)c2O)ccc1O [poacic acid, (E)-4-Hydroxy-3-{2-[(E)-4-hydroxy-3-methoxystyryl]}-5-methoxycinnamic acid]
- binding to purified yeast glucan [1]: directly binds β-1,3-glucan
- lesion development on detached soybean leaves (S. sclerotiorum): markedly reduced lesion development
- bioactivity against S. cerevisiae (Saccharomyces cerevisiae): greatest antifungal activity
- bioactivity against S. cerevisiae (Saccharomyces cerevisiae; listed as Poacic acid): highest bioactivity
- IC50 (Saccharomyces cerevisiae; Saccharomyces cerevisiae, read-out: IC50 (growth rate inhibition)): 111 µg/mL and 324 µM
- glucan staining with aniline blue in buds (yeast cells (his3Δ)): significantly decreased glucan staining in buds
- mannoprotein staining with Con A (yeast cells (his3Δ)): does not change mannoprotein staining
- cell leakage (propidium iodide uptake) (yeast cells; actively growing cells (YPD)): caused rapid cell leakage
- cell leakage (propidium iodide uptake) (yeast cells; arrested cells without carbon source (YP)): leakage was still significantly greater

From patent US11985974B2, “Antimicrobial ferulic acid derivatives and uses thereof” (WISCONSIN ALUMNI RESEARCH FOUNDATION, priority 2014, dated 2024)
